The results in this text go back to paper PMC4778918, “Signal Transduction at the Domain Interface of Prokaryotic Pentameric Ligand-Gated Ion Channels” (PLoS Biology, 2016).

For experiment [1], the target named is ELIC T28D (Dickeya chrysanthemi, UniProt P0C7B7, INS163G/T28D). Nature of the experiment: biochemical. Type of experiment: binding, Erwinia chrisanthemi. The note with it: read-out: Keff.
Experiment [2] has as its target ELIC WT (Dickeya chrysanthemi, UniProt P0C7B7, INS163G). Nature of the experiment: biochemical. The note with it: ITC, ELIC WT in detergent (UDM), 4°C, single-site isotherm; read-out: effective dissociation constant (Keff). Format: binding, Erwinia chrisanthemi.

For the molecule `CC(=O)OCC[N+](C)(C)C` [acetylcholine], the Kd was determined as 2000 µM in experiment [1] and 2500 µM in experiment [2].
